Test results: PMC7830714 (Molecular pharmaceutics, 2017)

Biological target: T1, ABCG2 (Homo sapiens, UniProt Q9UNQ0)
T1 sequence (Q9UNQ0 1-655): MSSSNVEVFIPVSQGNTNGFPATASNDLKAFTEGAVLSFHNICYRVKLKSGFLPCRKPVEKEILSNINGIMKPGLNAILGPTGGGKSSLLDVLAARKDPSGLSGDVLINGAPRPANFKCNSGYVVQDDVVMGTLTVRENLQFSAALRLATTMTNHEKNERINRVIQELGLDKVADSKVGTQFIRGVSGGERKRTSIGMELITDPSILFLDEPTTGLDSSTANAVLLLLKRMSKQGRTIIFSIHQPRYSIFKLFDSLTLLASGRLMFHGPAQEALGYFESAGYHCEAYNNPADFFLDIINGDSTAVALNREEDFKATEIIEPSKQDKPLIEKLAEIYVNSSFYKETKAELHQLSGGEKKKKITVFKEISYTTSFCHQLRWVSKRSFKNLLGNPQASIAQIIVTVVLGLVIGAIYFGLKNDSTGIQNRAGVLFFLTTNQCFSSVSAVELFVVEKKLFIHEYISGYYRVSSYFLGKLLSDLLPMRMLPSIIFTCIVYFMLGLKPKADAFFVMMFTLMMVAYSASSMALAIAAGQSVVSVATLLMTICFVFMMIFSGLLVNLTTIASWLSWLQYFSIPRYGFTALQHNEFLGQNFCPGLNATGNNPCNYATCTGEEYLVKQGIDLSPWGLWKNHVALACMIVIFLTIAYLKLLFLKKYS
Experiment: inhibition of […]IAAP photoaffinity labeling in MCF7-FLV1000 membrane vesicles
Assay type: binding

Q: How did the “% inhibition of photolabeling at 10 μM” value turn out when `N#Cc1ccc(-c2c(-c3ncn[nH]3)sc(N3CCOCC3)c2C#N)c(F)c1` [PF-4989216] was run?
A: ~ 55
